Patent publication EP0937779A2, “Cell damage marker” (ORIENTAL YEAST CO., LTD., priority 1998, dated 1999)
Like-named read-outs stand apart in the source and are kept apart here.

Columns and labels:
Assay type in all cases: biochemical
[1] = target: PGAM-B standard (based on pooled sera) (Homo sapiens, UniProt P18669); assay: Effect of potassium tetrathionate on PGAM-B, automatic analysis method (NADH reduction rate assay); conditions: for remaining activity at 1900 µM: final potassium tetrathionate concentration 1.9 mM; for remaining activity at 1900 µM / remaining activity at 3800 µM / remaining activity at 7600 µM: 5-min reaction, read-out: Effect of potassium tetrathionate over PGAM-B (residual activity, 0 mM = 100); for remaining activity at 3800 µM: final potassium tetrathionate concentration 3.8 mM; for remaining activity at 7600 µM: final potassium tetrathionate concentration 7.6 mM
PGAM-B standard (based on pooled sera), sequence (P18669 whole entry): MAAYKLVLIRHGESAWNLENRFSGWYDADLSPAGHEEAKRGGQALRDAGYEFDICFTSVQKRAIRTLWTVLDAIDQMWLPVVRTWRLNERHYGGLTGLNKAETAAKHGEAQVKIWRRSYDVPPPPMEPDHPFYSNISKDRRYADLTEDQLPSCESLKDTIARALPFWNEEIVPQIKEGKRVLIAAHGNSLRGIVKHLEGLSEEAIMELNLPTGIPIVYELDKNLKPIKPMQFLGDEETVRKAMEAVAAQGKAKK
Procedure: (§1) The reagent 1 (R-1; 250 µl) was mixed with a culture medium sample (5 µl), and the resulting mixture was then left to stand for 5 minutes. By subsequently using the reagent 2 (R-2), the PGAM activity was assayed.
(§2) Because the reagent 2 (R-2) contained glycerate-3-P (substrate), the reaction was initiated by adding 41 µl of the reagent 2. About 1.5 minutes after the addition of the reagent 2, the assay was started.
(§3) By using an automatic analyzer of Hitachi 7150 and by presetting the assay code to RATE-A: 32-39 and the assay temperature to 37 °C, the decrease of absorbance A at 340 nm was determined on the basis of the reduction of NADH for about 1.5 minutes. Additionally, a sub-wave length was set at 405 nm for the determination. Furthermore, the value of a conventionally known cell damage marker LDH (lactate dehydrogenase) is shown concurrently.
(§4) Prior to the assay of B-PGAM in the cell culture medium, the effect of potassium tetrathionate on PGAM-B and PGAM-M was examined by the automatic analysis method. As the sample, a type-B standard and a type-M standard (both based on pooled sera) were used. These standards were diluted with physiological saline to prepare 1/1 to 1/8 samples. Various concentrations of potassium tetrathionate were added to these samples for 5-min reaction, and subsequently, the amounts of the type-B and type-M PGAMs were determined by utilizing the automatic analysis method.
(§5) By using the reagents of Example 2, the amounts of PGAM-B and PGAM-M were individually determined by the automatic analysis method, and the results are shown below in Table 4. […]

[2] = target: PGAM-M standard (based on pooled sera) (Homo sapiens, UniProt P15259); assay: Effect of potassium tetrathionate on PGAM-M, automatic analysis method (NADH reduction rate assay)
PGAM-M standard (based on pooled sera), sequence (P15259 whole entry): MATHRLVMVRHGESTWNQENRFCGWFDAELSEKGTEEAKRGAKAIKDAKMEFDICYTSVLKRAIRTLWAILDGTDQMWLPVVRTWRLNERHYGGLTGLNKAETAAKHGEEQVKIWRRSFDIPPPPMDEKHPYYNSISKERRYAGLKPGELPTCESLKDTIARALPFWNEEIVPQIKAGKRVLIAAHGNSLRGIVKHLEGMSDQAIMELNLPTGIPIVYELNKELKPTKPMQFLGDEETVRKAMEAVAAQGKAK
Procedure: as §1, §2, §3, §4, §5

[3] = target: type-M isozyme (Homo sapiens, UniProt P15259); assay: Inhibition experiment over purified PGAM isozymes, type-M; conditions: tetrathionic acid used as the PGAM inhibitor
type-M isozyme, sequence (P15259 whole entry): as above
Excerpt: (§6) The method for assaying PGAM in accordance with the invention will now be described about the case of the type-B isozyme. The method for assaying the type-B isozyme comprises treating a sample with a PGAM inhibitor to inactivate specific isozymes and assaying the remaining PGAM activity. […] By adding tetrathionic acid to serum to inactivate the type-M isozyme and subsequently assaying the residual PGAM activity, therefore, the type-B isozyme can be assayed separately.
(§7) At an inhibition experiment over purified PGAM isozymes, only 50 % of the type-MB isozyme is inactivated through the treatment with tetrathionic acid, so 50 % of the activity remains. Because the PGAM activity in normal serum and brain tissue is nearly totally derived from the type-B isozyme in a practical sense, the residual activity of the type-MB isozyme is negligible in biological samples.

[4] = target: type-MB isozyme (Homo sapiens, UniProt P15259); assay: Inhibition experiment over purified PGAM isozymes, type-MB; conditions: treatment with tetrathionic acid
type-MB isozyme, sequence (P15259 whole entry): as above
type-MB isozyme, sequence (P18669 whole entry, further chain): as the sequence (P18669 whole entry) above
Excerpt: as §6, §7

[5] = target: type-B isozyme (Homo sapiens, UniProt P18669); assay: Inhibition experiment over purified PGAM isozymes, type-B; conditions: tetrathionic acid used as the PGAM inhibitor
type-B isozyme, sequence (P18669 whole entry): as above
Excerpt: as §6, §7

[6] = dilution ratio 1/1, 0 mM = 100 (183U/L)
[7] = dilution ratio 1/2, 0 mM = 100 (91U/L)
[8] = dilution ratio 1/4, 0 mM = 100 (46U/L)
[9] = dilution ratio 1/8, 0 mM = 100 (22U/L)

O=S(=O)([O-])SSS(=O)(=O)[O-].[K+].[K+] [potassium tetrathionate]
remaining activity at 1900 µM [1, 6]: 98%
remaining activity at 1900 µM [1, 7]: 98%
remaining activity at 1900 µM [1, 8]: 97%
remaining activity at 1900 µM [1, 9]: 93%
remaining activity at 3800 µM [1, 6]: 92%
remaining activity at 3800 µM [1, 7]: 91%
remaining activity at 3800 µM [1, 8]: 86%
remaining activity at 3800 µM [1, 9]: 93%
remaining activity at 7600 µM [1, 6]: 81%
remaining activity at 7600 µM [1, 7]: 80%
remaining activity at 7600 µM [1, 8]: 59%
remaining activity at 7600 µM [1, 9]: 75%
type-B isozyme influenced by potassium tetrathionate (summary in words) ([1]; summary of Table 4): absolutely never influenced
remaining activity at 1900 µM ([2]; final potassium tetrathionate concentration 1.9 mM, dilution ratio 1/1, 5-min reaction, 0 mM = 100 (2727U/L), read-out: Effect of potassium tetrathionate over PGAM-M (residual activity, 0 mM = 100)): 0%
remaining activity at 3800 µM ([2]; final potassium tetrathionate concentration 3.8 mM, dilution ratio 1/1, 5-min reaction, 0 mM = 100 (2727U/L), read-out: Effect of potassium tetrathionate over PGAM-M (residual activity, 0 mM = 100)): 0%
remaining activity at 7600 µM ([2]; final potassium tetrathionate concentration 7.6 mM, dilution ratio 1/1, 5-min reaction, 0 mM = 100 (2727U/L), read-out: Effect of potassium tetrathionate over PGAM-M (residual activity, 0 mM = 100)): 0%
type-M isozyme inactivated with potassium tetrathionate (summary in words) ([2]; summary of Table 4): specifically inactivated

O=S(=O)(O)SSS(=O)(=O)O [tetrathionic acid]
type-M isozyme inactivated [3]: ~100%
activity of the type-MB isozyme that remains [4]: 50%
type-B isozyme inactivated (in words) [5]: hardly inactivated
